ChEMBL document CHEMBL1158852, “A new sesquiterpene ester from Celastrus orbiculatus reversing multidrug resistance in cancer cells” (J Nat Prod, 1998)

Tests used:
[1] = Cytotoxicity against human KB-3-1 cells by SRB assay; format: functional, cell-based
[2] = Cytotoxicity against drug-resistant human KBV1 cells by SRB assay; format: functional, cell-based; details: KB-V1
[3] = Cytotoxicity against drug-resistant human KBV1 cells in presence of 0.1 uM Vinblastine by SRB assay; format: functional, cell-based; details: KB-V1
MCF7 = test: Cytotoxicity against human MCF7 cells by SRB assay; format: functional, cell-based
[4] = Cytotoxicity against drug-resistant human MCF7/ADR cells by SRB assay; format: functional, cell-based; details: NCI/ADR-RES
[5] = Cytotoxicity against drug-resistant human MCF7/ADR cells in presence of 10 uM Adriamycin by SRB assay; format: functional, cell-based; details: NCI/ADR-RES
SNB-19 = test: Cytotoxicity against human SNB19 cells by SRB assay; format: functional, cell-based
SK-OV-3 = test: Cytotoxicity against human SKOV3 cells by SRB assay; format: functional, cell-based
NCI-H23 = test: Cytotoxicity against human NCI-H23 cells by SRB assay; format: functional, cell-based
UACC-62 = test: Cytotoxicity against human UACC62 cells by SRB assay; format: functional, cell-based
KM12 = test: Cytotoxicity against human KM12 cells by SRB assay; format: functional, cell-based
[6] = Cytotoxicity against human MOLT cells by SRB assay; format: functional, cell-based
KBV1 [7] = test: Inhibition of P-gp-mediated multidrug resistance assessed as ratio of Adriamycin IC50 for drug-resistant human KBV1 cells to drug-sensitive human KB-3-1 cells at 3 uM; format: cell-based
KBV1 [8] = test: Inhibition of P-gp-mediated multidrug resistance assessed as ratio of Vinblastine IC50 for drug-resistant human KBV1 cells to drug-sensitive human KB-3-1 cells at 3 uM; format: cell-based
KBV1 [9] = test: Inhibition of P-gp-mediated multidrug resistance assessed as ratio of Paclitaxel IC50 for drug-resistant human KBV1 cells to drug-sensitive human KB-3-1 cells at 3 uM; format: cell-based

| SMILES | IC50 [1] [µM] | IC50 [2] [µM] | IC50 [3] [µM] | IC50 (MCF7) [µM] | IC50 [4] [µM] | IC50 [5] [µM] | IC50 (SNB-19) [µM] | IC50 (SK-OV-3) [µM] | IC50 (NCI-H23) [µM] | IC50 (UACC-62) [µM] | IC50 (KM12) [µM] | IC50 [6] [µM] | Ratio IC50 (KBV1 [7]) | Ratio IC50 (KBV1 [8]) | Ratio IC50 (KBV1 [9]) |
| --- | --- | --- | --- | --- | --- | --- | --- | --- | --- | --- | --- | --- | --- | --- | --- |
| CC(=O)O[C@H]1C[C@@H](C)[C@]23OC(C)(C)[C@H](C[C@H](OC(=O)c4ccccc4)[C@]2(C)[C@H]1OC(C)=O)[C@H]3OC(=O)c1ccccc1 [ORBICULIN A] | 49 | 64.9 | 0.8 | 53.2 | 61.9 | 1.15 | 40.8 | 48.4 | 41.9 | 38.8 | 38.6 | 7.33 |  |  |  |
| CC(=O)O[C@H]1CC[C@@H](C)[C@]23OC(C)(C)[C@H](C[C@H](OC(=O)c4ccccc4)[C@]12C)[C@H]3OC(=O)c1ccccc1 | 9.26 | 13 | 1.36 | 10.8 | 14.4 | 1.39 | 18.3 | 19.3 | 16.8 | 12.9 | 14.9 | 3.05 | 98.8 | 63.9 | 37.1 |
